Read-outs that look alike come from different tables or passages of the source.
Legend:
[1] = Metabolic stability assay; format: in vitro ADME; settings: percentage metabolic stability in human liver microsomes
Experimental: The metabolic stability assay was performed in Wuxi. 1 μM, 15 min. The kinase selectivity testing was performed in ProQinase GmbH, Germany.

PIM-1 = molecular target: T1, PIM-1 (Homo sapiens, UniProt P11309); assay: PIM-1 biochemical assay (ADP Hunter); settings: read-out: PIM1 IC50;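 note: recombinant human PIM-1 carrying a C-terminal His tag, kinase activity quantified via ADP formed as the direct enzymatic product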
T1 construct: histidine tag (C); made in house

PIM-2 = molecular target: T2, PIM-2 (Homo sapiens, UniProt Q9P1W9); assay: PIM-2 biochemical assay (ADP Hunter); settings: semi-quantitative class; read-out: PIM2 IC50;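 note: recombinant N-terminally His-tagged human enzyme, kinase activity quantified by detection of ADP formed as the direct reaction product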
T2 construct: histidine tag (N); made in house

PIM-3 = molecular target: T3, PIM-3 (Homo sapiens, UniProt Q86V86); assay: PIM-3 biochemical assay (ADP Hunter); settings: read-out: PIM3 IC50;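 note: kinase activity read out as the quantity of ADP generated by the enzyme reaction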
T3 construct: purchased Millipore 14-738

FLT3 = molecular target: T4, FLT3 (Homo sapiens, UniProt P36888); assay: FLT3 biochemical assay (ADP Hunter); settings: semi-quantitative class;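 note: FLT3 enzymatic activity quantified through the ADP produced by the kinase reaction, detected with an ADP Hunter readout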
T4 sequence (P36888 27-993): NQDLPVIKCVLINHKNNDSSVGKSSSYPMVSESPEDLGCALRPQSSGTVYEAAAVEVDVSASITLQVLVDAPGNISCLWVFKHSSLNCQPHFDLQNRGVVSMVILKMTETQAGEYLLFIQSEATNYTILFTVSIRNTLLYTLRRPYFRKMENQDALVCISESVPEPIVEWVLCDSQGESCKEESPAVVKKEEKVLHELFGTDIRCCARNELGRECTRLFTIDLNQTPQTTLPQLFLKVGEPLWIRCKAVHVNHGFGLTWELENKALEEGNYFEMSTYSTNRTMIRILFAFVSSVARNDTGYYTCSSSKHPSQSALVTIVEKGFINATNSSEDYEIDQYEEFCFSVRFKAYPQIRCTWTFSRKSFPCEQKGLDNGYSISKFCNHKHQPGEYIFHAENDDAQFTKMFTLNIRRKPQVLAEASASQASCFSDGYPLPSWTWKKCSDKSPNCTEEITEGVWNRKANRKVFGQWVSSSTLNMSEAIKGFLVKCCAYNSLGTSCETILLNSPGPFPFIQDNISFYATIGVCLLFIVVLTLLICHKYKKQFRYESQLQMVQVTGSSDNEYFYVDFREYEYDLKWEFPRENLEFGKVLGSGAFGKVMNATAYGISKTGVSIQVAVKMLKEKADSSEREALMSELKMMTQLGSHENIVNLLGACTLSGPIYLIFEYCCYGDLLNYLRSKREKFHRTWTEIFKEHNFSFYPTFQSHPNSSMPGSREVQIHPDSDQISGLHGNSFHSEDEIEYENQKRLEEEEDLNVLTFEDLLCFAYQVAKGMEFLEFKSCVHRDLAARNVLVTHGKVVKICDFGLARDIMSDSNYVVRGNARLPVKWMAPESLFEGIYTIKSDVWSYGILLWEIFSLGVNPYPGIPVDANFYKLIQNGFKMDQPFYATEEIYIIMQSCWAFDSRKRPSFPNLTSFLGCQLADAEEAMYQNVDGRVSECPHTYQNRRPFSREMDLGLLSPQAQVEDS

tumor cell lines = assay: Combination assay (MTT in vitro cell proliferation, combination index); format: cell-based
[2] = actual IC50 value in parentheses
[3] = Jeko-1, combined with lapatinib
[4] = SKMel19, combined with GDC-0879

T2 sequence (Q9P1W9 whole entry): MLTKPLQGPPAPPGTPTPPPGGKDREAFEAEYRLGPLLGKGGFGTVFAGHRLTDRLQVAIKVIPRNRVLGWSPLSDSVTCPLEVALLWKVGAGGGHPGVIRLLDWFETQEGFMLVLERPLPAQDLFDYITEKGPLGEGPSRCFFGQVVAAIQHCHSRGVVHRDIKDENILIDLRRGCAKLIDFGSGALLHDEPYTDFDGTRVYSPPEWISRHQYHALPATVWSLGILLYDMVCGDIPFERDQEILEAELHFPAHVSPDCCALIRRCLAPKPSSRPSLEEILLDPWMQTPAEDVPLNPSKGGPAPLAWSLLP
T1 sequence (P11309 whole entry): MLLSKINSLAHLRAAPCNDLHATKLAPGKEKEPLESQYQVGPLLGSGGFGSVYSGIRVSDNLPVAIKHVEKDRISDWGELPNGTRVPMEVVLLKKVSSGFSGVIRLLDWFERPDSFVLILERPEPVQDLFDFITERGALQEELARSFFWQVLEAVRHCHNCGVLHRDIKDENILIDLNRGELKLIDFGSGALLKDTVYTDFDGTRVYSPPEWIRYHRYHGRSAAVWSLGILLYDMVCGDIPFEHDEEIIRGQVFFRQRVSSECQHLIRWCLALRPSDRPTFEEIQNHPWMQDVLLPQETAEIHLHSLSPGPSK

Row | Compound | IC50 (PIM-1; [2]) | IC50 (PIM-1; semi-quantitative class) | IC50 (PIM-2) | IC50 (PIM-3; semi-quantitative class) | IC50 (FLT3) | also measured
1 | FC(F)(F)Oc1cccc(-n2nnc3ccc(NCC4CCNCC4)nc32)c1 [2-21] | – | – | – | – | – | Stability in HLM [1]: 97.95%
2 | FC(F)(F)Oc1cccc(-n2nnc3ccc(NCC4CCN(Cc5ccncc5)CC4)nc32)c1 [2-25] | 0.034 µM | < 0.1 µM | > 1 µM | < 0.1 µM | > 1 µM | IC50 (PIM-3; [2]): 0.022 µM; Combination Index (CI) (tumor cell lines; [3]): 0.387; Synergy (tumor cell lines; [3]): ++ (0.3 < CI < 0.7 (++)); Combination Index (CI) (tumor cell lines; MV4:11, combined with GDC-0941): 0.311; Synergy (tumor cell lines; MV4:11, combined with GDC-0941): ++ (0.3 < CI < 0.7 (++)); Combination Index (CI) (tumor cell lines; [4]): 0.87; Synergy (tumor cell lines; [4]): + (0.7 < CI < 1.2 (+))
3 | Oc1ccc(-n2nnc3ccc(NCC4CCNCC4)nc32)cc1 [2-32] | 0.011 µM | < 0.1 µM | > 1 µM | < 0.1 µM | 0.1 to 1 µM | IC50 (PIM-3; [2]): 0.015 µM
4 | FC(F)(F)Oc1cccc(-n2nnc3ccc(N4CC5(CCNCC5)C4)nc32)c1 [2-49] | – | – | 0.1 to 1 µM | 0.1 to 1 µM | > 1 µM | Synergy (tumor cell lines; NCIH23, combined with lapatinib): + (0.7 < CI < 1.2 (+))
5 | CN1CCC(CNc2nc3c(cc2Cl)nnn3-c2cccc(OC(F)(F)F)c2)CC1 [2-55, [6-chloro-3-(3-trifluoromethoxy-phenyl)-3H-[1,2,3]triazolo[4,5-b]pyridin-5-yl]-(1-methyl-piperidin-4-ylmethyl)-amine] | 0.09 µM | < 0.1 µM | > 1 µM | > 1 µM | 0.1 to 1 µM | Combination Index (CI) (tumor cell lines; [3]): 0.15; Synergy (tumor cell lines; [3]): +++ (0.1 < CI < 0.3 (+++)); Combination Index (CI) (tumor cell lines; MV4:11, combined with GDC-0941): 0.35; Synergy (tumor cell lines; MV4:11, combined with GDC-0941): ++ (0.3 < CI < 0.7 (++))
6 | CS(=O)(=O)N1CCC(Nc2ccc3nnn(-c4cccc(OC(F)(F)F)c4)c3n2)CC1 [2-56] | 0.079 µM | < 0.1 µM | 0.1 to 1 µM | > 1 µM | > 1 µM | –
7 | O[C@H]1CC[C@@H](CNc2ccc3nnn(-c4cccc(OC(F)(F)F)c4)c3n2)CC1 [2-57] | – | < 0.1 µM | > 1 µM | 0.1 to 1 µM | > 1 µM | –
8 | FC(F)(F)Oc1cccc(-n2nnc3ccc(N4CCOC5(CCNCC5)C4)nc32)c1 [2-58] | 0.085 µM | < 0.1 µM | > 1 µM | > 1 µM | > 1 µM | –
9 | FC(F)(F)Oc1cccc(-n2nnc3ccc(N4CCCC5(CCNCC5)C4)nc32)c1 [2-59] | – | < 0.1 µM | > 1 µM | 0.1 to 1 µM | > 1 µM | –
10 | FC(F)(F)Oc1cccc(-n2nnc3ccc(N4CCC5(CC4)CNCCO5)nc32)c1 [2-61] | 0.074 µM | < 0.1 µM | > 1 µM | > 1 µM | > 1 µM | –
11 | FC(F)(F)c1cccc(-n2nnc3ccc(NCC4CCNCC4)nc32)c1 [2-63] | – | – | > 1 µM | 0.1 to 1 µM | > 1 µM | –
12 | O[C@H]1CC[C@@H](Nc2ccc3nnn(-c4cccc(OC(F)(F)F)c4)c3n2)CC1 [2-68] | – | – | – | – | – | Synergy (tumor cell lines; [3]): ++ (0.3 < CI < 0.7 (++)); Synergy (tumor cell lines; MV4:11, combined with GDC-0941): ++ (0.3 < CI < 0.7 (++))
13 | FC(F)(F)Oc1cccc(-n2nnc3ccc(N4CCNCC4)nc32)c1 [2-69] | – | – | > 1 µM | 0.1 to 1 µM | > 1 µM | –
14 | OC1CCN(c2ccc3nnn(-c4cccc(OC(F)(F)F)c4)c3n2)CC1 [2-70] | – | 0.1 to 1 µM | 0.1 to 1 µM | 0.1 to 1 µM | > 1 µM | –

Reference: patent publication US20130065883A1 (Centro Nacional de Investigaceiones Oncologicas (CNIO), priority 2010, published 2013)
